The source of these data is patent publication US8497278B2, “Imidazo[1,2-a]pyridine compounds” (priority 2008, dated 2013).

Some results are limits rather than exact numbers.

Test [1] addresses T1, α2 subtype containing GABA-A receptors (Homo sapiens, UniProt P18507+P47869).
T1 construct: expressed in transfected cells; host or cells: Xenopus laevis oocytes, cRNA injected
Description: Two-electrode voltage clamp electrophysiology in Xenopus oocytes, potentiation of GABA EC20 response, α2. The format is cell-based. Conditions: 100 nM compound; for activation at 0.1 µM: read-out: Percentage of potentiation alpha2. The method, then:
(§1) Electrophysiology protocol: Oocytes were prepared from adult female Xenopus laevis frogs. cRNA encoding human α1, α2, α3, α5, β3 and γ2L GABAA receptor subunits was injected into the cytoplasm of stage 5 or 6 oocytes using the Robocyte Robot (Multi Channel Systems, Reutlingen, Germany). Two-electrode voltage clamp recordings were made in 96-well plates using the Robocyte Robot. Oocytes were impaled using recording heads with two glass electrodes containing 1.5 M potassium acetate and 0.5 M KCl and held at a membrane potential of −80 mV. Oocytes were continually perfused with a ND96 solution (96 mM NaCl, 2 mM KCl, 0.1 mM CaCl2, and 5 mM HEPES, pH 7.5) using a Gilson 222 XL Liquid Handler and Gilson Minipuls 3 Peristaltic Pump (Gilson Medical Electronics, Middleton, Wis., USA). The protocol consisted of three 20-s applications of GABA that gave a 20% of the maximum response (EC20: 60 μM) to allow for headroom to determine a baseline GABA response. To assess the potentiation, oocytes were first exposed to a single 1 μM chlordiazepoxide (CDP) as a potentiation standard. Oocytes with insufficient expression levels (currents below threshold) or insufficient γ2L subunit incorporation (judged by rapid desensitization upon GABA application, or by insufficient potentiation by CDP) were not included in analysis. Following this control application, a given oocyte was exposed to test compounds at 100 nM concentrations. Only one concentration of one compound was tested per oocyte. […] One skilled in the art will recognize that subtypes contribute to the effects of GABA-A modulators. Such that compounds favoring different subtypes can have different therapeutic effects. The magnitude of modulation, for example, partial modulators can influence the effects in vivo. “++” indicates a greater modulation that “+” so that at any given subtype “++” inducates a greater amount of modulation for that subtype. In some embodiments, modulation favoring alpha 1 relative to alpha2 and/or alpha 3 can have sedative hypnotic effects. In other embodiments, compounds with reduced selectivity of alpha 1 can express anxiolytic effects with less sedation. Compounds with selectivity for alpha 5 can have memory/cognition enhancing effects.

Test [2] has as its system central benzodiazepine receptors. Description: Central benzodiazepine receptor binding (test of Speth et al.). Conditions: 1000 nM of the compound. The procedure, abridged:
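Values are percent inhibition of central benzodiazepine receptor binding at 1000 nM compound (initial single-point screen at 1.0E-09, 1.0E-07 and 1.0E-05 M). Speth et al. binding test; nonspecific binding defined with excess unlabelled ligand and subtracted from total.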

In test [3] the target is T2, α1 subtype containing GABA-A receptors (Homo sapiens, UniProt P14867+P18507).
T2 construct: expressed in transfected cells; host or cells: Xenopus laevis oocytes, cRNA injected
T2 sequence (P14867 28-456): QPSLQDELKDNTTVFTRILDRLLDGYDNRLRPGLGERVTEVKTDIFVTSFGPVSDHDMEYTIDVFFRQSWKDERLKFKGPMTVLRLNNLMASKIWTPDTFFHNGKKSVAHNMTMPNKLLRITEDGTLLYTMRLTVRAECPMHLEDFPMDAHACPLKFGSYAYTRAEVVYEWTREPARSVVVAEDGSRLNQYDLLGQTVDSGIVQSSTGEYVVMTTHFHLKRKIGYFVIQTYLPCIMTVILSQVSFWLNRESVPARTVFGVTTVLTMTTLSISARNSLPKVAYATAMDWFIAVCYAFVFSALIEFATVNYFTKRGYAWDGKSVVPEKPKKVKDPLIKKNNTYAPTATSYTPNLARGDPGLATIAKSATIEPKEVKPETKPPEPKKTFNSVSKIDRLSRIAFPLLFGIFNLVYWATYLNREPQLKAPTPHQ
T2 sequence (P28472 26-473 partner): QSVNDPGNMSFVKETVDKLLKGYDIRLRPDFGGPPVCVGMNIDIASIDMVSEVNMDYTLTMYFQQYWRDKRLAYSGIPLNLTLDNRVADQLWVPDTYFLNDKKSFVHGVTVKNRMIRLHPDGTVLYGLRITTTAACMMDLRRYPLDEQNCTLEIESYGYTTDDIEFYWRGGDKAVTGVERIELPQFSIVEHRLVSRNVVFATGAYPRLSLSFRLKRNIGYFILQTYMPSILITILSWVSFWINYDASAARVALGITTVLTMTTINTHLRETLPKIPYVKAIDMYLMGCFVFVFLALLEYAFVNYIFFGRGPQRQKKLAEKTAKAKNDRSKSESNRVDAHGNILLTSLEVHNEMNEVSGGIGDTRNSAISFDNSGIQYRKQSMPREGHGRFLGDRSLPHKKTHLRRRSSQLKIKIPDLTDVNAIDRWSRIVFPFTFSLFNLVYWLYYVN
T2 sequence (P18507 40-475): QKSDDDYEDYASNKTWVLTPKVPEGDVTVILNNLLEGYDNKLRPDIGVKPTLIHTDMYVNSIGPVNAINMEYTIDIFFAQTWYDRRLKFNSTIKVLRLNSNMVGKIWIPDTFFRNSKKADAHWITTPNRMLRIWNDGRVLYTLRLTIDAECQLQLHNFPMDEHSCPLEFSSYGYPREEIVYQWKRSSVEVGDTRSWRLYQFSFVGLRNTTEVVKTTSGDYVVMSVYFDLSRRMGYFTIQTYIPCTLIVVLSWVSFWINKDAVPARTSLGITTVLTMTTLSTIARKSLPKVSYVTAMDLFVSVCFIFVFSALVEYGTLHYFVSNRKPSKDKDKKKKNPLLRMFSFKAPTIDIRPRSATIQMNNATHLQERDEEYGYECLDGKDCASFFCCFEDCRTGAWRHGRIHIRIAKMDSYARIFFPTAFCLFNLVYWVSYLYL
Description: Two-electrode voltage clamp electrophysiology in Xenopus oocytes, potentiation of GABA EC20 response, α1. It counts as cell-based. The following applies: 100 nM compound; for activation at 0.1 µM: read-out: Percentage of potentiation alpha1. As to the method:
as §1
(In two-electrode clamp one electrode senses voltage and the other passes current.)

T1 sequence (P47869 29-451): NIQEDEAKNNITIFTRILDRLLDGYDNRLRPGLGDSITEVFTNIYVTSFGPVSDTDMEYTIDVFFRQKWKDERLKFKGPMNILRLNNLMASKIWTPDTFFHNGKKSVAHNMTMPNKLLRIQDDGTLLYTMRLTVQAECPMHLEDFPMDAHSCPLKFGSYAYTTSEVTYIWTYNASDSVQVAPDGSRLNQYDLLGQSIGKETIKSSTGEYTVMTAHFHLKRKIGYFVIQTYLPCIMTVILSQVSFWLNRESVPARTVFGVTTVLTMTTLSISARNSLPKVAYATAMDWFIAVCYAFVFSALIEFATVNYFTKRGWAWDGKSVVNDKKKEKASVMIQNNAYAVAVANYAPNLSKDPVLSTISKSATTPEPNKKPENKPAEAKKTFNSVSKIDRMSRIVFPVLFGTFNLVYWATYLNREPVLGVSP
T1 sequence (P28472 26-473 partner): as the sequence (P28472 26-473 partner) above
T1 sequence (P18507 40-475): as the sequence (P18507 40-475) above

In the case of `Cn1c(=O)ccn(Cc2c(-c3ccc(Cl)cc3)nc3ccccn23)c1=O` [Compound 125, 1-((2-(4-chlorophenyl)imidazo[1,2-a]pyridin-3-yl)methyl)-3-methylpyrimidine-2,4(1H,3H)-dione], the activation at 0.1 µM is 10 to 50% in test [1] and -10 to 10% in test [3]. The “% Inhibition at 1000 nM for CBZD” value in test [2] was “++ (percentage of inhibition of central BZD site binding is greater than 80% in the presence of 1000 nM of the compound)”.
The corresponding values for `Cn1ncnc1Cc1c(-c2ccc(Cl)cc2)nc2ccccn12` [Compound 207, 2-(4-Chlorophenyl)-3-((1-methyl-1H-1,2,4-triazol-5-yl)methyl)imidazo[1,2-a]pyridine] are 10 to 50%, 10 to 50% and “++ (percentage of inhibition of central BZD site binding is greater than 80% in the presence of 1000 nM of the compound)”.
The corresponding values for `CNNc1cncc(Cc2c(-c3ccc(Cl)cc3)nc3ccccn23)n1` [Compound 193, 2-(4-chlorophenyl)-3-((6-(2-methylhydrazinyl)pyrazin-2-yl)methyl)imidazo[1,2-a]pyridine] are 10 to 50%, 10 to 50% and “++ (percentage of inhibition of central BZD site binding is greater than 80% in the presence of 1000 nM of the compound)”.
With `CCc1nccn1Cc1c(-c2ccc(C)cc2)nc2ccc(C)cn12` [Compound 4, 3-((2-Ethyl-1H-imidazol-1-yl)methyl)-6-methyl-2-p-tolylH-imidazo[1,2-a]pyridine], in test [1], the “Percentage of potentiation alpha2” value is 0 (percentage of potentiation is between about 10% to about −10%). In addition, in test [2], the “% Inhibition at 1000 nM for CBZD” value is on record as “++ (percentage of inhibition of central BZD site binding is greater than 80% in the presence of 1000 nM of the compound)”. In addition, in test [3], the “Percentage of potentiation alpha1” value is “+ (percentage of potentiation is greater than or equal to 10% but less than 50% in the presence of 100 nM of the compound)”.
As for `COC(=O)c1ncn(Cc2c(-c3ccc(Cl)cc3)nc3ccccn23)n1` [Compound 25, 1-[2-(4-Chloro-phenyl)-imidazo[1,2-a]pyridin-3-ylmethyl]-1H-[1,2,4]triazole-3-carboxylic acid methyl ester], the results for the activation at 0.1 µM in test [1] and in test [3] were ≥ 50% and 10 to 50%, respectively.
Take `COc1ccc(NCc2c(-c3ccccc3)nc3ccc(Cl)cn23)nn1` [Compound 165, N-((6-chloro-2-phenylimidazo[1,2-a]pyridin-3-yl)methyl)-6-methoxypyridazin-3-amine]: the activation at 0.1 µM in test [1] and in test [3] was 10 to 50% throughout. Further, the “% Inhibition at 1000 nM for CBZD” value in test [2] is given as “++ (percentage of inhibition of central BZD site binding is greater than 80% in the presence of 1000 nM of the compound)”.
Regarding `O=c1c2ccccc2[nH]n1Cc1c(-c2ccc(Cl)cc2)nc2ccccn12` [Compound 118, 2-((2-(4-chlorophenyl)imidazo[1,2-a]pyridin-3-yl)methyl)-1H-indazol-3(2H)-one], the activation at 0.1 µM was ≥ 50% in test [1] and 10 to 50% in test [3]. For the same compound, the “% Inhibition at 1000 nM for CBZD” value in test [2] is reported as “++ (percentage of inhibition of central BZD site binding is greater than 80% in the presence of 1000 nM of the compound)”.
Regarding `Nc1ccn(Cc2c(-c3ccc(Cl)cc3)nc3ccccn23)c(=O)n1` [Compound 106, 4-amino-1-((2-(4-chlorophenyl)imidazo[1,2-a]pyridin-3-yl)methyl)pyrimidin-2(1H)-one], the activation at 0.1 µM in test [1] and in test [3] was 10 to 50% in each case.
Regarding `CONC(=O)c1nc(Cc2c(-c3ccc(F)cc3)nc3ccc(F)cn23)no1` [Compound 224, 3-((2-(4-fluorophenyl)-6-fluoroimidazo[1,2-a]pyridin-3-yl)methyl)-N-methyoxy-1,2,4-oxadiazole-5-carboxamide], the “Percentage of potentiation alpha2” value in test [1] is reported as “+ (percentage of potentiation is greater than or equal to 10% but less than 50% in the presence of 100 nM of the compound)”. Also, the “Percentage of potentiation alpha1” value in test [3] is 0 (percentage of potentiation is between about 10% to about −10%).
With `CNC(=O)c1ncn(Cc2c(-c3ccc(Cl)cc3)nc3ccccn23)n1` [Compound 73, 1-((2-(4-chlorophenyl)imidazo[1,2-a]pyridin-3-yl)methyl)-N-methyl-1H-1,2,4-triazole-3-carboxamide], the activation at 0.1 µM in test [1] and in test [3] was 10 to 50% in each case.
Take `O=C(NO)c1nc(Cc2c(-c3ccc(F)cc3)nc3ccc(F)cn23)no1` [Compound 223, 3-((2-(4-fluorophenyl)-6-fluoroimidazo[1,2-a]pyridin-3-yl)methyl)-N-hydroxy-1,2,4-oxadiazole-5-carboxamide]: the activation at 0.1 µM was 10 to 50% in test [1] and ≤ -10% in test [3].
Consider `Cc1ccc(-c2nc3ccc(C)cn3c2CNc2nccnn2)cc1` [Compound 145, (6-Methyl-2-p-tolyl-imidazo[1,2-a]pyridin-3-ylmethyl)-[1,2,4]triazin-3-yl-amine], for which the results for the activation at 0.1 µM in test [1] and in test [3] were 10 to 50% and ≥ 50%, respectively.
As for `CN(C)c1ccn(Cc2c(-c3ccc(Cl)cc3)nc3ccccn23)c(=O)n1` [Compound 135, 1-((2-(4-chlorophenyl)imidazo[1,2-a]pyridin-3-yl)methyl)-4-(dimethylamino)pyrimidin-2(1H)-one], the activation at 0.1 µM in test [1] was ≥ 50%. Moreover, in test [2], the “% Inhibition at 1000 nM for CBZD” value is “++ (percentage of inhibition of central BZD site binding is greater than 80% in the presence of 1000 nM of the compound)”.
Consider `CNC(=O)c1nc(Cc2c(-c3ccc(F)cc3)nc3ccc(Cl)cn23)no1` [Compound 218, 3-((2-(4-fluorophenyl)-6-chloroimidazo[1,2-a]pyridin-3-yl)methyl)-1,2,4-oxadiazole-5-N-methyl-carboxamide], for which the “Percentage of potentiation alpha2” value in test [1] is recorded as “++ (percentage of potentiation is greater than or equal to 50% in the presence of 100 nM of the compound)”. Besides, the “Percentage of potentiation alpha1” value in test [3] is reported as “+ (percentage of potentiation is greater than or equal to 10% but less than 50% in the presence of 100 nM of the compound)”.
Regarding `NNC(=O)c1nc(Cc2c(-c3ccc(Cl)cc3)nc3ccccn23)no1` [Compound 215, 3-((2-(4-chlorophenyl)imidazo[1,2-a]pyridin-3-yl)methyl)-1,2,4-oxadiazole-5-carbohydrazide], the activation at 0.1 µM was 10 to 50% in test [1] and -10 to 10% in test [3].
The matching figures for `CNC(=O)c1nc(Cc2c(-c3ccc(F)cc3)nc3ccc(F)cn23)no1` [Compound 221, 3-((6-fluoro-2-(4-fluorophenyl)imidazo[1,2-a]pyridin-3-yl)methyl)-N-methyl-1,2,4-oxadiazole-5-carboxamide]: 10 to 50% and -10 to 10%.
The corresponding values for `CN(O)C(=O)c1nc(Cc2c(-c3ccc(F)cc3)nc3ccc(F)cn23)no1` [Compound 225, 3-((6-fluoro-2-(4-fluorophenyl)imidazo-[1,2-a]pyridin-3-yl)methyl)-N-hydroxy-N-methyl-1,2,4-oxadiazole-5-carboxamide] are 10 to 50% and ≤ -10%.
For `NC(=O)c1nc(Cc2c(-c3ccc(Cl)cc3)nc3ccc(F)cn23)no1` [Compound 217, 3-((2-(4-chlorophenyl)-6-fluoroimidazo[1,2-a]pyridin-3-yl)methyl)-1,2,4-oxadiazole-5-carboxamide], the activation at 0.1 µM in test [1] was ≥ 50%; in test [3], 10 to 50%.
The matching figures for `O=C(NO)c1nc(Cc2c(-c3ccc(Cl)cc3)nc3ccc(F)cn23)no1` [Compound 222, 3-((2-(4-chlorophenyl)-6-fluoroimidazo[1,2-a]pyridin-3-yl)methyl)-N-hydroxy-1,2,4-oxadiazole-5-carboxamide]: ≥ 50% and -10 to 10%.
On to `Clc1ccc(-c2nc3ccccn3c2Cn2nnc3ccccc32)cc1` [Compound 42, 1-((2-(4-chlorophenyl)H-imidazo[1,2-a]pyridin-3-yl)methyl)-1H-benzo[d][1,2,3]triazole], for which, in test [1], the “Percentage of potentiation alpha2” value is recorded as “+ (percentage of potentiation is greater than or equal to 10% but less than 50% in the presence of 100 nM of the compound)”. In addition, in test [3], the “Percentage of potentiation alpha1” value is “+ (percentage of potentiation is greater than or equal to 10% but less than 50% in the presence of 100 nM of the compound)”.
